Where “and” joins values, the source holds several entries; their conditions need not be identical. Equal entries are not always repeated. Where two headings read alike, the source gives them in different places.
Experiments:
CI-AMPARs [1] = molecular target: T1, CI-AMPARs (Rattus norvegicus, UniProt P19491, Q607R); experiment: Whole-cell patch-clamp of kainate-induced currents in isolated hippocampal CA1 pyramidal neurons; assay type: cell-based, Wistar rat; details: for CI-AMPARs % inhibition at 100 µM: 100 µM compound; for CI-AMPARs % inhibition at 100 µM / inhibition at 100 µM: currents induced by 100 µM kainate, mean ± SD, N = 5; for CI-AMPARs % inhibition at 100 µM / inhibition at 100 µM / IC50: −80 mV; for inhibition at 100 µM: read-out: CI-AMPARs % inhibition at 100 µM, 100 µM compound; for Activity drop in the presence of cyclothiazide: 50 µM kainate; for IC50: kainate-induced currents, Hill equation; for inhibition at 300 µM: 300 µM compound, read-out: percentage of inhibition at 300-µM concentration
T1 construct: activity against native calcium-permeable AMPA receptors (CP-AMPARs) and calcium-impermeable AMPA receptors (CI-AMPARs); endogenous in cells; host or cells: acutely isolated pyramidal neurons from the CA1 area of Wistar rat hippocampal slices
Description: All experimental procedures were approved by the Animal Care and Use Committee of the I.M. Sechenov Institute of Evolutionary Physiology and Biochemistry of the Russian Academy of Sciences. Wistar rats (13–19 days old) were anesthetized with sevoflurane and then decapitated. Maximum effort was made to minimize the number of animals used. Brains were removed quickly and cooled to 2–4°C in an ice bath. […] The antagonism of CI-AMPARs was studied on pyramidal neurons from the CA1 area of the hippocampus.
Series resistance of about 20 MΩ was compensated by 70–80% and monitored during experiments. Currents were recorded using an EPC-8 amplifier (HEKA Electronics, Lambrecht, Germany), filtered at 5 kHz, sampled, and stored on a personal computer. Drugs were applied using the RSC-200 perfusion system (BioLogic Science Instruments, Claix, France) under computer control. The solution exchange time in the whole-cell mode was 50–60 ms. […] The pipette solution contained (in mM) CsF 100, CsCl 40, NaCl 5, CaCl2 0.5, EGTA 5, and HEPES 10 (pH was adjusted to 7.2 with CsOH). Experiments were performed at room temperature (22–24°C). […] Lamotrigine, topiramate, levetiracetam, felbamate, carbamazepine, tiagabin, vigabatrin, zonisamide, and gabapentin were purchased from Tocris Bioscience (Bristol, United Kingdom). Perampanel was from MedChemExpress (Stockholm, Sweden). Kinetics of transient processes of more than 20-ms duration was approximated by exponential functions. Experiments were performed at −80 mV holding voltage. All experimental data are presented as mean ± SD estimated from at least four experiments. Significance of the effects was tested with paired t test. Differences were considered significant at p < 0.05. 3D structures of compounds were calculated by the ZMM software (zmmsoft.ca).

CI-AMPARs [2] = molecular target: T1, CI-AMPARs; set-up: method as in Barygin, 2016; details: ref Barygin, 2016; cited from earlier work
CP-AMPARs = experiment: Whole-cell patch-clamp of kainate-induced currents in isolated striatal giant interneurons; assay type: cell-based, Wistar rat; details: for CP-AMPARs % inhibition at 100 µM: 100 µM compound, currents induced by 100 µM kainate, mean ± SD, N = 5; for CP-AMPARs % inhibition at 100 µM / IC50: −80 mV; for IC50: read-out: IC50 CP-AMPARs, kainate-induced currents, Hill equation; for % block: IEM-1925, […], representative recording, Figure 3E; for % inhibition: […] IEM-1925
Description: All experimental procedures were approved by the Animal Care and Use Committee of the I.M. Sechenov Institute of Evolutionary Physiology and Biochemistry of the Russian Academy of Sciences. Wistar rats (13–19 days old) were anesthetized with sevoflurane and then decapitated. Maximum effort was made to minimize the number of animals used. Brains were removed quickly and cooled to 2–4°C in an ice bath. […] Single neurons were freed from slices by vibrodissociation ([Vorobjev, 1991]). The antagonism of CP-AMPARs was studied on striatal giant interneurons ([Bernard et al., 1997]; [Gotz et al., 1997]), which were identified by their shape and size. […] The antagonism of CI-AMPARs was studied on pyramidal neurons from the CA1 area of the hippocampus.
Series resistance of about 20 MΩ was compensated by 70–80% and monitored during experiments. Currents were recorded using an EPC-8 amplifier (HEKA Electronics, Lambrecht, Germany), filtered at 5 kHz, sampled, and stored on a personal computer. Drugs were applied using the RSC-200 perfusion system (BioLogic Science Instruments, Claix, France) under computer control. The solution exchange time in the whole-cell mode was 50–60 ms. The extracellular solution contained (in mM) NaCl 143, KCl 5, MgCl2 2.0, CaCl2 2.5, D-glucose 18, and HEPES 10 (pH was adjusted to 7.3 with HCl). The pipette solution contained (in mM) CsF 100, CsCl 40, NaCl 5, CaCl2 0.5, EGTA 5, and HEPES 10 (pH was adjusted to 7.2 with CsOH). Experiments were performed at room temperature (22–24°C). […] Lamotrigine, topiramate, levetiracetam, felbamate, carbamazepine, tiagabin, vigabatrin, zonisamide, and gabapentin were purchased from Tocris Bioscience (Bristol, United Kingdom). Perampanel was from MedChemExpress (Stockholm, Sweden). Kinetics of transient processes of more than 20-ms duration was approximated by exponential functions. Experiments were performed at −80 mV holding voltage. All experimental data are presented as mean ± SD estimated from at least four experiments. Significance of the effects was tested with paired t test. Differences were considered significant at p < 0.05. 3D structures of compounds were calculated by the ZMM software (zmmsoft.ca).

hGluA1-4 receptors = test system: hGluA1-4 receptors; set-up: method as in Fukushima et al. (2020); details: ref Fukushima et al. (2020); cited from earlier work

T1 sequence (P19491 22-883 Q607R): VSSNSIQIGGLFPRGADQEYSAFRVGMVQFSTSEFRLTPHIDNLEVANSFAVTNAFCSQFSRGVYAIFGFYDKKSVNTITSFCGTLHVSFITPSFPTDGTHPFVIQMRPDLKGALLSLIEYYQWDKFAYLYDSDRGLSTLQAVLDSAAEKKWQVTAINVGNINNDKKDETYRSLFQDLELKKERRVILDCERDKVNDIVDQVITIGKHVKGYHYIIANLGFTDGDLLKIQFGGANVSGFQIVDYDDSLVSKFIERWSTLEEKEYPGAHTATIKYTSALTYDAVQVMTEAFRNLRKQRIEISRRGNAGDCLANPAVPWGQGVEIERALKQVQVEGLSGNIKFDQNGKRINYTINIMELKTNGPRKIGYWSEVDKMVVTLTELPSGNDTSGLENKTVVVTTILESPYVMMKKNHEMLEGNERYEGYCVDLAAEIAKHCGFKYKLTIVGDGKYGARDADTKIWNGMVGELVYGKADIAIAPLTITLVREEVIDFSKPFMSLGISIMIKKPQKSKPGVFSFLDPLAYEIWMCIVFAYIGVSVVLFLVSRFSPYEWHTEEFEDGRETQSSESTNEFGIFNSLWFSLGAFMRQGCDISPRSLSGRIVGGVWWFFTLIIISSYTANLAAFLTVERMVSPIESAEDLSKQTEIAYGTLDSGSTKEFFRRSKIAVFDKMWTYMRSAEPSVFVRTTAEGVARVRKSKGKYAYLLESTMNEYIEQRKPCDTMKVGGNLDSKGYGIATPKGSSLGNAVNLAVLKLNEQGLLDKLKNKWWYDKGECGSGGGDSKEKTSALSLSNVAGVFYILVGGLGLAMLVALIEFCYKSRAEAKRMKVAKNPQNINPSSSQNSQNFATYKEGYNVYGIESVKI

CC1=NN=C(c2ccc(N)cc2)c2cc3c(cc2C1)OCO3 [GYKI-52466]
effect on the slow phase of recovery from 50 µM phenytoin (CI-AMPARs [1]; 200 µM GYKI-52466): remains unchanged
displacement of slow negative allosteric antagonist perampanel (CI-AMPARs [2]): able to displace

NCC1(CC(=O)O)CCCCC1 [Gabapentin]
CP-AMPARs % inhibition at 100 µM (CP-AMPARs): 12 ± 5%
CP-AMPARs % inhibition at 100 µM (CP-AMPARs; listed as gabapentin): ≤ 20%
CI-AMPARs % inhibition at 100 µM (CI-AMPARs [1]): 20 ± 6%
inhibition at 100 µM (CI-AMPARs [1]): ≤ 20%
activity against hGluA1-4 receptors (hGluA1-4 receptors): did not find significant activity

CCCC(C)C1(CC)C(=O)NC(=O)NC1=O (centres unmarked) [Pentobarbital]
IC50 (CP-AMPARs): 80 ± 13 µM
% block (CI-AMPARs [1]): 56% and 42%
Activity drop at high (500 µM) kainate concentration (CI-AMPARs [1]): more active in the case of lower kainate concentration and Yes
More active against CI-AMPARs (CI-AMPARs [1]): Yes
effect on maximal response to kainate (CI-AMPARs [1]; 14 µM pentobarbital): decreased the maximal response to kainate
Activity drop in the presence of cyclothiazide (CI-AMPARs [1]; 100 µM cyclothiazide): Yes
Activity drop in the presence of cyclothiazide (CI-AMPARs [1]; 100 µM cyclothiazide, listed as pentobarbital): significantly attenuated in the presence of cyclothiazide
decrease in the % of inhibition with the increase in agonist concentration (CI-AMPARs [1]; 50 vs 500 µM kainate): 10–15%
% block (CI-AMPARs [1]; Pentobarbital, 50 μM, Kainate, 50 μM + cyclothiazide, 100 μM, representative recording, Figure 5E): 27%
% block (CI-AMPARs [1]; Pentobarbital, 50 μM, Kainate, representative recording, Figure 5D): 75%
Difference in the % of inhibition in coapplication and preapplication protocols (CI-AMPARs [1]; coapplication with kainate vs preapplication without kainate): more active in the coapplication protocol and Yes
Trap in kainate 100 µM (CI-AMPARs [1]; double-pulse protocol, 30-s pause): Yes
IC50 (CI-AMPARs [1]): 14 ± 3 µM
pH-dependence (CI-AMPARs [1]; pH 7.4 vs 9.0): Yes
% block (CI-AMPARs [1]; pentobarbital 30 μM, pH 7.4, Kainate, 100 μM, representative recording, Figure 10B): 65%
% block (CI-AMPARs [1]; pentobarbital 30 μM, pH 9.0, Kainate, 100 μM, representative recording, Figure 10B): 27%

CCC1(C)CC(=O)NC1=O (centres unmarked) [ethosuximide]
inhibition at 300 µM (CI-AMPARs [1]): ≤ 20%

NCCCCCNC1(c2ccccc2)CCCCC1 [IEM-1925]
slow component of the response to testing kainate application in the trapping protocol (CP-AMPARs; 6 µM IEM-1925, double-pulse protocol, n = 4): 1,800 ± 400 ms
Activity drop at high (500 µM) kainate concentration (CP-AMPARs; 50 vs 500 µM kainate, striatal CP-AMPARs): No
% block (CP-AMPARs; Ka 50 μM): 49%
% block (CP-AMPARs; Ka 500 μM): 57%
% inhibition (CP-AMPARs; 50 µM kainate): 48 ± 3%
% inhibition (CP-AMPARs; 500 µM kainate): 55 ± 5%
Difference in the % of inhibition in coapplication and preapplication protocols (CP-AMPARs; coapplication with kainate vs preapplication without kainate, striatal CP-AMPARs): inhibited only open channels and Yes
Trap in kainate 100 µM (CP-AMPARs; double-pulse protocol, 30-s pause, striatal giant interneuron): Yes
Trap in kainate 500 µM (CP-AMPARs; double-pulse protocol, striatal giant interneuron): Yes
IC50 (CP-AMPARs): 1.3 ± 0.4 µM
More active against CI-AMPARs (CI-AMPARs [1]): dramatically more active against CP-AMPARs and No
IC50 (CI-AMPARs [1]): 180 ± 30 µM

Cc1ccsc1C(=CCCN1CCCC(C(=O)O)C1)c1sccc1C (centres unmarked) [Tiagabin]
CP-AMPARs % inhibition at 100 µM (CP-AMPARs): 10 ± 2%
CP-AMPARs % inhibition at 100 µM (CP-AMPARs; listed as tiagabin): ≤ 20%
CI-AMPARs % inhibition at 100 µM (CI-AMPARs [1]): 14 ± 2%
inhibition at 100 µM (CI-AMPARs [1]): ≤ 20%

CCC1(c2ccccc2)C(=O)NCNC1=O [primidone]
inhibition at 300 µM (CI-AMPARs [1]): ≤ 20%

NC(=O)N1c2ccccc2C=Cc2ccccc21 [Carbamazepine]
CP-AMPARs % inhibition at 100 µM (CP-AMPARs): 15 ± 4%
CP-AMPARs % inhibition at 100 µM (CP-AMPARs; listed as carbamazepine): ≤ 20%
CI-AMPARs % inhibition at 100 µM (CI-AMPARs [1]): 11 ± 3%
inhibition at 100 µM (CI-AMPARs [1]): ≤ 20%
activity against hGluA1-4 receptors (hGluA1-4 receptors): did not find significant activity

NC(=O)OCC(COC(N)=O)c1ccccc1 [Felbamate]
CP-AMPARs % inhibition at 100 µM (CP-AMPARs): 10 ± 4%
CP-AMPARs % inhibition at 100 µM (CP-AMPARs; listed as felbamate): ≤ 20%
CI-AMPARs % inhibition at 100 µM (CI-AMPARs [1]): 16 ± 4%
inhibition at 100 µM (CI-AMPARs [1]): ≤ 20%

CCC1(c2ccccc2)C(=O)NC(=O)NC1=O [phenobarbital]
activity against hGluA1-4 receptors (hGluA1-4 receptors): did not find significant activity

O=C1CNC(=O)N1 [hydantoin]
inhibition at 300 µM (CI-AMPARs [1]): ≤ 20%

C=CC(N)CCC(=O)O (centres unmarked) [Vigabatrin]
CP-AMPARs % inhibition at 100 µM (CP-AMPARs): 10 ± 3%
CP-AMPARs % inhibition at 100 µM (CP-AMPARs; listed as vigabatrin): ≤ 20%
CI-AMPARs % inhibition at 100 µM (CI-AMPARs [1]): 8 ± 1%
CI-AMPARs % inhibition at 100 µM (CI-AMPARs [1]; listed as vigabatrin): ≤ 20%

CCCC(CCC)C(=O)O [valproate]
activity against hGluA1-4 receptors (hGluA1-4 receptors): did not find significant activity

NS(=O)(=O)c1cc2c(cc1Cl)NC(C1CC3C=CC1C3)NS2(=O)=O (centres unmarked) [Cyclothiazide]
fold potentiation (CI-AMPARs [1]; Kainate, 50 μM +/- cyclothiazide, 100 μM, representative recording, Figure 5A): 7.4 fold
fold induction at 100 µM (CI-AMPARs [1]; read-out: increase of the stationary current induced by 50 µM kainate, 100 µM cyclothiazide): 8 ± 2

COC[C@@H](NC(C)=O)C(=O)NCc1ccccc1 [lacosamide]
activity against hGluA1-4 receptors (hGluA1-4 receptors): did not find significant activity

NS(=O)(=O)Cc1noc2ccccc12 [Zonisamide]
CP-AMPARs % inhibition at 100 µM (CP-AMPARs): 11 ± 3%
CP-AMPARs % inhibition at 100 µM (CP-AMPARs; listed as zonisamide): ≤ 20%
CI-AMPARs % inhibition at 100 µM (CI-AMPARs [1]): 11 ± 2%
inhibition at 100 µM (CI-AMPARs [1]): ≤ 20%

O=C1NC(=O)C(Cc2ccccc2)N1 (centres unmarked) [5-benzylhydantoin]
inhibition at 300 µM (CI-AMPARs [1]): ≤ 20%
